Source: patent publication US11384060B2, “Amide compounds and use thereof” (ALPHALA CO., LTD., priority 2017, dated 2022)
Like-named read-outs stand apart in the source and are kept apart here.

Experiments:
glucagon receptor (GCGR) = biological target: T1, glucagon receptor (GCGR) (Homo sapiens, UniProt P47871); experiment: I125-glucagon binding assay (competition, GCGR membrane fractions)
T1 construct: expressed in transfected cells; host or cells: CHO-K1 cells overexpressing GCGR (membrane fractions)
T1 sequence (P47871 26-477): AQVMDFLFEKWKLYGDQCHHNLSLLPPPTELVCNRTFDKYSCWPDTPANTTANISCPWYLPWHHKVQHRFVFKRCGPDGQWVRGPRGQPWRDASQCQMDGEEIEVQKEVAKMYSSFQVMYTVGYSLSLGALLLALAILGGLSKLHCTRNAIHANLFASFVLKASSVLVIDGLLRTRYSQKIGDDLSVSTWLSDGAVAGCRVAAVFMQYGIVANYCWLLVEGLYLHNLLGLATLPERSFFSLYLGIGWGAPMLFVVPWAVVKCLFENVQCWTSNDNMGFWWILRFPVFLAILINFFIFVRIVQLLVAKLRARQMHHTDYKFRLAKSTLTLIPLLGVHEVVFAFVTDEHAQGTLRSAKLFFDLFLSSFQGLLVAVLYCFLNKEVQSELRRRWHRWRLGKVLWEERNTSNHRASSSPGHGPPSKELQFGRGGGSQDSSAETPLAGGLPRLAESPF
Procedure, shortened: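 Membranes from CHO-K1 cells overexpressing GCGR, 7.5 μg/well in 50 mM Tris pH 7.4 with 0.5% BSA, were preincubated 5 min with serially diluted compounds, then given 0.0625 nM final I^125-glucagon for 30 min at 25° C. Bound label was filtered on PEI-coated GF/B and counted; IC50 by non-linear regression.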

[1] = biological target: T2, glucagon receptor (GCGR) overexpressed CHO-K1 cells or human primary hepatocytes (Homo sapiens, UniProt P47871); experiment: Glucagon cAMP inhibition assay (Cisbio cAMP Dynamic 2 HTRF); format: cell-based
T2 construct: expressed in transfected cells; host or cells: GCGR overexpressed CHO-K1 cells or human primary hepatocytes (endogenous receptor)
T2 sequence (P47871 26-477): as above
Procedure, shortened: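 GCGR-overexpressing CHO-K1 cells or human primary hepatocytes in HBSS with 0.1% BSA and 800 nM IBMX, pre-incubated 30 min with serially diluted compounds (1% DMSO final), then stimulated 30 min at room temperature with glucagon at its EC50. cAMP measured by HTRF after 60 min lysis; IC50 by non-linear regression.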

[2] = competition with I125-glucagon 0.0625 nM, membrane fractions of GCGR overexpressed CHO-K1 cells
[3] = inhibition of glucagon (EC50 concentration) induced cAMP production

| Compound | IC50 (glucagon receptor (GCGR)) | IC50 cAMP [1] | IC50 (glucagon receptor (GCGR); [2]) | IC50 cAMP [1, 3] | IC50 (glucagon receptor (GCGR); uM) |
| --- | --- | --- | --- | --- | --- |
| O=C(O)CCNC(=O)c1ccc(N[C@@H](Cc2ccccc2)C(=O)Nc2ccc(-c3ccccc3C(F)(F)F)cc2)cc1 [Compound 23-23] | 4.15 µM | 5800 nM |  |  |  |
| CC(C)[C@H](COc1ccc(-c2cc3ccccc3o2)cc1)Nc1ccc(C(=O)NCCC(=O)O)cc1 [Compound 1-34, (R)-3-(4-((1-(4-(benzofuran-2-yl)phenoxy)-3-methylbutan-2-yl)amino)benzamido) propanoic Acid] |  |  | 0.113 µM | 238.7 nM |  |
| CC(C)COC[C@H](Cc1ccc(-c2ccc(OC(F)(F)F)cc2)cc1)Nc1ccc(C(=O)NCCC(=O)O)cc1 [Compound 19-33, (S)-3-(4-((1-isobutoxy-3-(4′-(trifluoromethoxy)-[1,1′-biphenyl]-4-yl)propan-2-yl)amino)benzamido)propanoic Acid] | 0.284 µM | 472 nM |  |  |  |
| CCOC(=O)CCNC(=O)c1ccc(N[C@H](Cc2ccc(-c3ccc(C(C)(C)C)cc3)cc2)C(=O)Nc2ccc(C(F)(F)F)cc2)cc1 [Compound 24-15, Ethyl (R)-3-(4-((3-(4′-(tert-butyl)-[1,1′-biphenyl]-4-yl)-1-oxo-1-((4-(trifluoromethyl)phenyl)amino)propan-2-yl)amino)benzamido)propanoate] | 0.578 µM | 7988 nM |  |  |  |
| CCCC[C@@H](COc1ccc(-c2cc3ccccc3o2)c(C)n1)Nc1ccc(C(=O)NCCC(=O)O)cc1 [Compound 18-1, (S)-3-(4-((1-((5-(benzofuran-2-yl)-6-methylpyridin-2-yl)oxy)hexan-2-yl)amino)benzamido)propanoic Acid] | 0.386 µM | 250 nM |  |  |  |
| CCCC[C@@H](COc1ccc(-c2ccc(C(F)(F)F)cc2F)c(OC)c1)Nc1ccc(C(=O)NCCC(=O)O)cc1 [Compound 13-14, (S)-3-(4-((1-((2′-fluoro-2-methoxy-4′-(trifluoromethyl)-[1,1′-biphenyl]-4-yl)oxy)hexan-2-yl)amino)benzamido)propanoic Acid] |  |  | 0.015 µM | 66 nM |  |
| CCOC(=O)CCNC(=O)c1ccc(N[C@H](CC(C)C)C(=O)Nc2ccc(C(F)(F)F)cc2)cc1 [Compound 24-9, Ethyl (R)-3-(4-((4-methyl-1-oxo-1-((4-(trifluoromethyl)phenyl)amino)pentan-2-yl)amino)benzamido)propanoate] |  | 1059 nM |  |  | > 10 µM |
| Cc1cc(C)c(-c2ccc(C[C@H](Nc3ccc(C(=O)NCCC(=O)O)cc3)C(=O)Nc3ccc(C(C)(C)C)cc3)cc2)c(C)c1 [Compound 23-25] | 0.458 µM | 3100 nM |  |  |  |
| CC(C)[C@@H](COc1ccc(-c2ccc(C(F)(F)F)cc2)cn1)Nc1ccc(C(=O)NCCC(=O)O)cc1 [Compound 15-7, (S)-3-(4-((3-methyl-1-((5-(4-(trifluoromethyl)phenyl)pyridin-2-yl)oxy)butan-2-yl)amino)benzamido)propanoic Acid] | 0.753 µM | 258.8 nM |  |  |  |
| CC[C@H](C)[C@@H](COc1ccc(-c2ccc(C(F)(F)F)cc2Cl)c(OC)c1)Nc1ccc(C(=O)NCCC(=O)O)cc1 [Compound 13-3, 3-(4-(((2S,3S)-1-((2′-chloro-2-methoxy-4′-(trifluoromethyl)-[1,1′-biphenyl]-4-yl)oxy)-3-methylpentan-2-yl)amino)benzamido)propanoic Acid] |  |  | 0.057 µM | 71 nM |  |
| CC(C)(C)c1ccc(-c2ccc(C[C@@H](Nc3ccc(C(=O)NCCC(=O)O)cc3)C(=O)Nc3ccc(OC(F)(F)F)cc3)cc2)cc1 [Compound 24-26, (R)-3-(4-((3-(4′-(tat-butyl)-[1,1′-biphenyl]-4-yl)-1-oxo-1-((4-(trifluoromethoxy)phenyl)amino)propan-2-yl)amino)benzamido)propanoic Acid] | 0.0457 µM | 831.3 nM |  |  |  |
| CC[C@H](C)[C@@H](COc1ccc(-c2ccc(F)cc2F)cn1)Nc1ccc(C(=O)NCCC(=O)O)cc1 [Compound 15-20, 3-(4-(((2S,3S)-1-((5-(2,4-difluorophenyl)pyridin-2-yl)oxy)-3-methylpentan-2-yl)amino)benzamido)propanoic Acid] | 0.382 µM | 1255 nM |  |  |  |
| CC[C@H](C)[C@@H](COc1ccc(-c2ccc(C(F)(F)F)cc2Cl)c(C)n1)Nc1ccc(C(=O)NCCC(=O)O)cc1 [Compound 18-3, 3-(4-(((2S,3S)-1-((5-(2-chloro-4-(trifluoromethyl)phenyl)-6-methylpyridin-2-yl)oxy)-3-methylpentan-2-yl)amino)benzamido)propanoic Acid] | 0.062 µM | 75 nM |  |  |  |
| CCCC[C@@H](COc1ccc(-c2ccc(C(F)(F)F)cc2Cl)c(Cl)c1)Nc1ccc(C(=O)NCc2nnn[nH]2)cc1 [Compound 3-9, (S)—N-((1H-tetrazol-5-yl)methyl)-4-((1-((2,2′-dichloro-4′-(trifluoromethyl)-[1,1′-biphenyl]-4-yl)oxy)hexan-2-yl)amino)benzamide] |  |  | 0.037 µM | 528.1 nM |  |
| CC[C@H](C)[C@@H](COc1ccc(-c2ccc(C(C)(C)C)cc2)cc1)Nc1ccc(C(=O)NCCC(=O)O)cc1 [Compound 1-3, 3-(4-(((2S,3S)-1-((4′-(tert-butyl)-[1,1′-biphenyl]-4-yl)oxy)-3-methylpentan-2-yl)amino)benzamido)propanoic Acid] |  |  | 0.319 µM | 884.4 nM |  |
| CC(C)C[C@@H](Nc1ccc(C(=O)NCCC(=O)O)cc1)C(=O)Nc1ccc(C(F)(F)F)cc1 [Compound 24-10, (R)-3-(4-((4-methyl-1-oxo-1-((4-(trifluoromethyl)phenyl)amino)pentan-2-yl)amino)benzamido)propanoic Acid] | 5.82 µM | 30780 nM |  |  |  |
| CC(C)C[C@@H](COc1cc(F)c(-c2ccc(Cl)cc2Cl)c(F)c1)Nc1ccc(C(=O)NCCC(=O)O)cc1 [Compound 7-8, (S)-3-(4-((1-((2′,4′-dichloro-2,6-difluoro-[1,1′-biphenyl]-4-yl)oxy)-4-methylpentan-2-yl)amino)benzamido)propanoic Acid] |  |  | 0.049 µM | 329 nM |  |
| CCCC[C@@H](COc1ccc(-c2ccc(C(F)(F)F)cc2)c(Cl)c1)Nc1ccc(C(=O)NCc2nnn[nH]2)cc1 [Compound 3-17, (S)—N-((1H-tetrazol-5-yl)methyl)-4-((1-((2-chloro-4′-(trifluoromethyl)-[1,1′-biphenyl]-4-yl)oxy)hexan-2-yl)amino)benzamide] |  |  | 0.111 µM | 105 nM |  |
| CC[C@H](C)[C@@H](COc1nnc(-c2ccc(C(F)(F)F)cc2F)o1)Nc1ccc(C(=O)NCCC(=O)OC)cc1 [Compound 22-20, Methyl 3-(4-(((2S,3S)-1-((5-(2-fluoro-4-(trifluoromethyl)phenyl)-1,3,4-oxadiazol-2-yl)oxy)-3-methylpentan-2-yl)amino)benzamido)propanoate] | > 30 µM | >30000 nM |  |  |  |
| CC(C)[C@@H](COc1ccc(-c2ccc(C(F)(F)F)cc2)cc1)Nc1ccc(C(=O)NCCC(=O)O)nc1 [Compound 9-3, (S)-3-(5-((3-methyl-1-((4′-(trifluoromethyl)-[1,1′-biphenyl]-4-yl)oxy)butan-2-yl)amino)picolinamido)propanoic Acid] |  |  | 0.12 µM | 487 nM |  |
| CC(C)C[C@H](Cc1ccc(-c2cc3ccccc3o2)cc1)Nc1ccc(C(=O)NCCC(=O)O)cc1 [Compound 19-5, (R)-3-(4-((1-(4-(benzofuran-2-yl)phenyl)-4-methylpentan-2-yl)amino)benzamido)propanoic Acid] | 0.163 µM | 1082 nM |  |  |  |
